≈ marks a conversion by molar mass, not a printed value. Where a name gives a salt, the structure may show the parent alone. Read-outs that look alike come from different tables or passages of the source.
Key:
[1] = cited from earlier work
Microsomal stability = format: in vitro ADME; settings: compared to non-deuterated matched pair C26
RSV A2 = experiment: RSV virus titers by endpoint titration (CCID50), mono and combination; format: cell-based; settings: MA-104 cells, virus control 4.0
HRV-14 = HRV-14 virus titers by endpoint titration (CCID50), mono and combination; format: cell-based; settings: Hela cells, virus control 6.7
in vitro = settings: human
SARS-COV-2 = experiment: microbe, parasite or virus in culture; format: cell-based; settings: for EC50: Severe acute respiratory syndrome coronavirus 2; for SI: SARS-COV-2, CC50/EC50
[2] = Mouse pharmacokinetics, blood levels after single oral dose; format: in vivo, female C57BL/6 mice
Method: The present study aimed at the determination of pharmacokinetic parameters of Example 2 and it's metabolites (NHC, NHC-MP, NHC-DP and NHC-TP) in blood after single dose oral administration of 96.5 μmol/kg to female C57BL/6 mice (body weight 20 to 21 g). Blood samples were obtained from the retrobulbar venous plexus into Li-Heparin tubes (Minivette POCT, […]). The vehicle for preparation of the dose formulations was PBS. The samples were analysed by high resolution LC-MS at Pharmacelsus GmbH, Germany.

[3] = pH 7.4
[4] = pH 7.4; remark: listed apart in the source
physchem [5] = settings: pH 7.4
[6] = B-A permeability (Caco-2, pH 6.5/7.4); settings: human, test conc. 1.0E−05M
[7] = A-B permeability (Caco-2, pH 6.5/7.4); settings: human, A-B, Caco-2, pH 6.5/7.4, test conc. 1.0E−05M
physchem [8] = settings: fassgf or other biorelevant, kinetic from dmso stock
physchem [9] = settings: pH 7.4, aqueous buffer, kinetic from dmso stock
physchem [10] = settings: simulated gastric fluid
[11] = molecular target: N-terminally truncated recombinant hDHODH enzyme (Homo sapiens, UniProt Q02127); experiment: Human DHODH inhibition assay; format: biochemical; settings: pH 8.0, 30° C.
Method: Briefly, the hDHODH concentration was adjusted in a way that an average slope of approximately 0.2 AU/min served as the positive control (e.g. without inhibitor). […] The reaction was started by adding dihydroorotate and measuring the absorption at 600 nm for 2 min. For the determination of the IC50 values, each data point was recorded in triplicate. For the determination of the inhibitory constant Ki, the KM values for DHO and decylubichinon were determined. Afterwards, the compounds were diluted in a dilution series depending on their IC50 values in DMSO. The dilution was: 0 ×IC50 , 1/4×IC50 , 1/2×IC50 , 1×IC50 , 2×IC50 , 4×IC50 . […] Each data point was recorded in duplicate.

[12] = metabolite in blood of mice after single oral 96.5 μmol/kg Example 2
[13] = Caco-2, pH 6.5, Percent Recovery 1st
[14] = Caco-2, pH 6.5, Percent Recovery 2nd
[15] = Caco-2, pH 6.5, Percent Recovery Mean
[16] = Caco-2, pH 6.5, Permeability 1st
[17] = Caco-2, pH 6.5, Permeability 2nd
[18] = Caco-2, pH 6.5, Permeability Mean
[19] = SARS-COV-2 viral replication (YFP), read-out: EC50

Chain of N-terminally truncated recombinant hDHODH enzyme (Q02127 whole entry, looked up, the tested form may be a part): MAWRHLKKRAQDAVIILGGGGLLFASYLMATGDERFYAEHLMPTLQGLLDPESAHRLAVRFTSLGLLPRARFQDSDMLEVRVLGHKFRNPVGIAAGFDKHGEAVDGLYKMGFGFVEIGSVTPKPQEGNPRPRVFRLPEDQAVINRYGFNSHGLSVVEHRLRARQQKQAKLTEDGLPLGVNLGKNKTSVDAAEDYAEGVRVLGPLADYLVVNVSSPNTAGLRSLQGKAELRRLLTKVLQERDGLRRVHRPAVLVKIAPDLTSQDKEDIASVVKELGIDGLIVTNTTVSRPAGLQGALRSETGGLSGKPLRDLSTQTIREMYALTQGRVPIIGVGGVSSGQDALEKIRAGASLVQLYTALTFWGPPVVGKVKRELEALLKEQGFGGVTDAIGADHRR

## C[N+](C)(C)CCOP(=O)(O)OP(=O)([O-])OC[C@H]1O[C@@H](n2ccc(N)nc2=O)[C@H](O)[C@@H]1O [Citicoline, cytidine 5′-diphosphocholine]
[1]
  oral bioavailability: more than 90%

## [2H]C([2H])([2H])Oc1cccc(-c2ccc(NC(=O)C3=C(C(=O)O)CCC3)c(F)c2)c1 [Example 50, 2-((3-Fluoro-3′-(methoxy-d3)-[1,1′-biphenyl]-4-yl)carbamoyl) cyclopent-1-ene-1-carboxylic acid]
Microsomal stability
  microsomal stability: improved
RSV A2; Conc. 0.0079 μM
  RSV Virus Titers: 3.7 CCID50/mL (Log10)
RSV A2; Conc. 0.025 μM
  RSV Virus Titers: 3.7 CCID50/mL (Log10)
RSV A2; Conc. 0.079 μM
  RSV Virus Titers: 3.5 CCID50/mL (Log10)
RSV A2; Conc. 0.25 μM
  RSV Virus Titers: 3.5 CCID50/mL (Log10)
RSV A2; Conc. 0.79 μM
  RSV Virus Titers: 3.5 CCID50/mL (Log10)
RSV A2; Conc. 2.5 μM
  RSV Virus Titers: 2.0 CCID50/mL (Log10)
RSV A2; Conc. 7.9 μM
  RSV Virus Titers: 2.0 CCID50/mL (Log10)
RSV A2; Conc. 25 μM
  RSV Virus Titers: <0.7 CCID50/mL (Log10)
HRV-14; Conc. 0.0079 μM
  HRV-14 Virus Titers: 6.7 CCID50/mL (Log10)
HRV-14; Conc. 0.025 μM
  HRV-14 Virus Titers: 6.7 CCID50/mL (Log10)
HRV-14; Conc. 0.079 μM
  HRV-14 Virus Titers: 7.0 CCID50/mL (Log10)
HRV-14; Conc. 0.25 μM
  HRV-14 Virus Titers: 6.7 CCID50/mL (Log10)
HRV-14; Conc. 0.79 μM
  HRV-14 Virus Titers: 6.7 CCID50/mL (Log10)
HRV-14; Conc. 2.5 μM
  HRV-14 Virus Titers: 7.0 CCID50/mL (Log10)
HRV-14; Conc. 7.9 μM
  HRV-14 Virus Titers: 4.0 CCID50/mL (Log10)
HRV-14; Conc. 25 μM
  HRV-14 Virus Titers: 3.5 CCID50/mL (Log10)
In vitro
  CC50: > 100 µM
SARS-COV-2
  EC50: < 10 µM

## O=c1nc(NO)ccn1[C@@H]1O[C@H](COP(=O)(O)O)[C@@H](O)[C@H]1O [NHC-MP]
[2]; [12]
  AUC (0-inf): 1624 nM·h
  elimination half-life: 7.3 h
  maximal blood concentration: 274+41.4 nM
  time of maximal blood concentration post dose: 30 min

## O=c1nc(NO)ccn1[C@@H]1O[C@H](COP(=O)(O)OP(=O)(O)OP(=O)(O)O)[C@@H](O)[C@H]1O [NHC-TP, β-D-N^4-hydroxycytidine 5′-triphosphate, reference compound]
[2]; [12]
  maximal blood concentration: 611+100 nM
  time of maximal blood concentration post dose: 240 min

## O=c1nc(NO)ccn1[C@@H]1O[C@H](CO)[C@@H](O)[C@H]1O [NHC, β-D-N^4-hydroxycytidine]
[3]
  Solubility 1st: 349.99 µM (≈ 90.7 µg/mL)
  Solubility 2nd: 362.05 µM (≈ 93.8 µg/mL)
  Solubility Mean: > 200 µM
[4]
  logD: 1.12

## CC(C)C(=O)OC[C@H]1O[C@@H](n2ccc(NO)nc2=O)[C@H](O)[C@@H]1O [molnupiravir, reference compound]
Physchem [5]
  logD: 0.39
[6]; [13]
  recovery at 10 µM: 90%
[6]; [14]
  recovery at 10 µM: 89%
[6]; [15]
  recovery at 10 µM: 89%
[6]; [16]
  Papp at 10 µM: 0.26 ×10⁻⁶ cm/s
[6]; [17]
  Papp at 10 µM: 0.27 ×10⁻⁶ cm/s
[6]; [18]
  Papp at 10 µM: 0.3 ×10⁻⁶ cm/s
[7]; [13]
  recovery at 10 µM: 70%
[7]; [14]
  recovery at 10 µM: 71%
[7]; [15]
  recovery at 10 µM: 71%
[7]; [16]
  Papp at 10 µM: 0.19 ×10⁻⁶ cm/s
[7]; [17]
  Papp at 10 µM: 0.13 ×10⁻⁶ cm/s
[7]; [18]
  Papp at 10 µM: 0.2 ×10⁻⁶ cm/s
Physchem [8]; Solubility 1st
  solubility: 302 µM (≈ 99.3 µg/mL)
Physchem [8]; Solubility 2nd
  solubility: 329 µM (≈ 108 µg/mL)
Physchem [8]; Solubility Mean
  solubility: > 200 µM
Physchem [9]; Solubility 1st
  solubility: 247 µM (≈ 81.3 µg/mL)
Physchem [9]; Solubility 2nd
  solubility: 291 µM (≈ 95.7 µg/mL)
Physchem [9]; Solubility Mean
  solubility: > 200 µM
Physchem [10]; Solubility 1st
  solubility: 258 µM (≈ 84.9 µg/mL)
Physchem [10]; Solubility 2nd
  solubility: 293 µM (≈ 96.4 µg/mL)
Physchem [10]; Solubility Mean
  solubility: > 200 µM

## COc1cccc(C2=CCC=C(NC(=O)C3=C(C(=O)O)CCC3)C(F)=C2)c1 [Example C26]
[11]; substrate DHO varied, read-out: Ki (DHO)
  Ki: 592 nM
[11]; substrate decylubichinon varied, read-out: Ki (decylubichinon)
  Ki: 245 nM

## [2H]C([2H])([2H])Oc1cccc(-c2cc(F)c(NC(=O)C3=C(C(=O)O)CCC3)c(F)c2)c1 [Example 51, 2-((3,5-Difluoro-3′-(methoxy-d3)-[1,1′-biphenyl]-4-yl)carbamoyl) cyclopent-1-ene-1-carboxylic acid]
In vitro
  CC50: > 100 µM
SARS-COV-2
  SI: >5
SARS-COV-2; [19]
  EC50: < 20 µM

## O=c1nc(NO)ccn1[C@@H]1O[C@H](COP(=O)(O)OP(=O)(O)O)[C@@H](O)[C@H]1O [NHC-DP, β-D-N^4-hydroxycytidine 5′-diphosphate]
[4]
  logD: 0.12

## C[N+](C)(C)CCOP(=O)(O)OP(=O)([O-])OC[C@H]1O[C@@H](n2ccc(NO)nc2=O)[C@H](O)[C@@H]1O [Example 2, 2-(((((((2R,3S,4R,5R)-3,4-Dihydroxy-5-(4-(hydroxyamino)-2-oxopyrimidin-1 (2H)-yl)tetrahydrofuran-2-yl)methoxy) (hydroxy)phosphoryl)oxy)oxidophosphoryl)oxy)-N,N,N-trimethylethan-1-aminium triethylammonium salt]
[2]; mice, single oral 96.5 μmol/kg Example 2, not found in all blood samples
  blood concentration of test item (lower limit of quantification): < 14.4 nM

## C[N+](C)(C)CCOP(=O)([O-])OP(=O)([O-])OC[C@H]1O[C@@H](n2ccc(N)nc2=O)[C@H](O)[C@@H]1O.[Na+] [Example C1, Citicoline sodium, reference compound]
In vitro
  CC50: > 100 µM
SARS-COV-2
  SI: inactive
SARS-COV-2; [19]
  EC50: > 50 µM

— US20250032527A1, “MEDICAL USE OF N4-HYDROXY CITICOLINE COMPOUNDS” (IMMUNIC AG, priority 2021, published 2025)
